What was measured:
ROS in mesangial cells = assay: Determination of reactive oxygen species (ROS) in LPS-treated mesangial cells; type: cell-based, Mouse; conditions: in 5 minutes; for effect for inhibiting ROS / anti-oxidative effect (in words): 0.012 μg/ml and 0.048 μg/ml; for inhibition at 0.012 µg/mL / inhibition at 0.048 µg/mL: Mus musculus, Mesangial cell, 5 min, read-out: Inhibiting ROS %
Procedure: Determination of ROS was by detecting the intensity of fluorescence from an oxide of 2′,7′-dichlorofluorescein diacetate (2′,7′-dichlorofluorescein diacetate). The mesangial cells was treated as compounds which are to be measured, and 2′,7′-dichlorofluorescein diacetate (2 μM) was added to react for 30 minutes. After reaction for 30 minutes, LPS was added at specific time. Then, the signals were determined by […] (Bio-Rad Laboratories, Inc) with exciting wavelength of 485 nm and emitting wavelength of 530 nm.
Because ROS was inseparably related to kidney diseases, the results for determination of ROS in the aforementioned cells were shown in FIG. 2A-2F.

MCP-1 = assay: Anti-inflammatory response: MCP-1 in supernatant by ELISA; type: cell-based, Mouse; conditions: for anti-inflammation (MCP-1) inhibition effect (in words): 0.012 μg/ml and 0.048 μg/ml; for inhibition at 0.012 µg/mL / inhibition at 0.048 µg/mL: Mus musculus, read-out: Inhibited MCP-1 level
Procedure: It is known that MCP1 plays an important role in interstitial inflammation, tubular atrophy, and kidney fibrosis. Therefore, by performing the protein test, the effects of Antrodia camphorata about anti-inflammation for the cells in kidney can be determined.
According to the manual, MCP-1 in the supernatant was detected by ELISA kits (Biosciences, Los Angeles, Calif., USA) and was determined by ELISA reader (Bio-Tek) (for wavelength absorbance of 450 nm). * * * indicated as p<0.005, NS indicated.

[1] = tested on: mesangial cells (Mouse MC line CRL-1927); assay: MTT cell viability assay using mesangial cells; conditions: all chosen concentrations (0.01~200 μg/ml), 48 hours, FIGS. 1A-1F
Procedure: Here, Mouse MC line CRL-1927 was used in order to proceed the subsequent experiments. The cell line was derived from American Type Culture Collection (Rockville, Md., USA), and then was operated regular culture with a culture medium consisted of Dulbecco's modified Eagle's medium and Ham's F-12 medium with 3:1 ratio, and adding 5% fetal bovine serum and 14 mM HEPES.
The aforementioned cell line was cultured in the culture medium for 24 hours. The cells after hyperplasia were washed once with PBS, and treated with 1 time trypsin-EDTA, and followed by centrifuging at 1,200 rpm for 5 minutes, and the cells sedimented to form the cell pellet and the supernatant was removed. Then, 10 ml fresh medium was added, and the cells were re-suspended by shaking slightly. The cells were placed in 96-well microplate. When they were tested, 0.01˜200 μg/ml compounds from Antrodia camphorata were added into each of the well. The cells were incubated at 37° C. with 5% CO2 for 48 hours. Subsequently, 5 mg/ml 3-(4,5-dimethylthiazol-2-yl)-2,5-diphenyltetrazolium bromide (MTT) were added into the each well to react in the dark environment for 2 hours. Furthermore, in order to calculate the survival rate of the cells, the absorbance at wavelength of 570 nm was determined by enzyme-linked immunosorbent assay, and then the needed concentration for the half growth inhibition ratio (IC50) was calculated. […]

Molecule	effect for inhibiting ROS / anti-oxidative effect (in words) (ROS in mesangial cells)	Inhibiting ROS % (ROS in mesangial cells; 0.012 μg/ml) [%]	Inhibiting ROS % (ROS in mesangial cells; 0.048 μg/ml) [%]	Inhibited MCP-1 level (MCP-1; 0.012 μg/ml) [%]	Inhibited MCP-1 level (MCP-1; 0.048 μg/ml) [%]	effect on mesangial cell growth (MTT cell viability) [1]	inhibition at 0.012 µg/mL (ROS in mesangial cells; 0.012 μg/ml) [%]	inhibition at 0.048 µg/mL (ROS in mesangial cells; 0.048 μg/ml) [%]	anti-inflammation (MCP-1) inhibition effect (in words) (MCP-1)	inhibition at 0.012 µg/mL (MCP-1; 0.012 μg/ml) [%]	inhibition at 0.048 µg/mL (MCP-1; 0.048 μg/ml) [%]
4-acetyl-Antroquinonol B	exhibited anti-oxidation for nephritis cells	5	12	0	0	did not affect mesangial cells to grow	–	–	–	–	–
COC1=C(OC)C(O)C(CC=C(C)CCC=C(C)CC(O)C=C(C)C)C(C)C1=O (centres unmarked) [Antrocamol LT1, 4-hydroxy-5-[9-hydroxy-3,7,11-trimethyldodeca-2,6,10-trienyl]-2,3-dimethoxy-6-met hyl-cyclohex-2-enone]	–	–	–	–	–	–	3	14	did not have the effects of inhibition	0	0
COC1=C(OC)C(OC(C)=O)C(CC=C(C)CCC=C(C)CC(O)C=C(C)C)C(C)C1=O (centres unmarked) [Antrocamol LT2, 4-acetoxy-5-[9-hydroxy-3,7,11-trimethyldodeca-2,6,10-trienyl]-2,3-dimethoxy-6-met hyl-cyclohex-2-enone]	–	–	–	–	–	–	0	0	did not have the effects of inhibition	0	0
COC1=C(OC)[C@H](O)[C@H](C/C=C(\C)CC/C=C(\C)C/C=C/C(C)(C)O)[C@@H](C)C1=O [Antrocamol LT3, (4R,5R,6R)-4-hydroxy-5-[(2E,6E,9E)-11-hydroxy-3,7,11-trimethyldodeca-2,6,9-trienyl]-2,3-dimethoxy-6-methylcyclohex-2-enone]	did not have the inhibiting effect	–	–	–	–	–	0	0	better effect for inhibiting MCP-1 level	0	40.2
COC1=C(OC)[C@H](O)[C@H](C/C=C(\C)CC/C=C(\C)CCC=C(C)C)[C@@H](C)C1=O [Antroquinonol, reference compound]	did not have the inhibiting effect	–	–	–	–	–	0	0	did not have the effects of inhibition	0	0
Antroquinonol B	exhibited anti-oxidation for nephritis cells	0	12.5	0	0	did not affect mesangial cells to grow	–	–	did not have the effects of inhibition	–	–
